Experimental data as given in patent publication US20140094510A1, “NON-AQUEOUS TAXANE NANODISPERSION FORMULATIONS AND METHODS OF USING THE SAME” (Teikoku Pharma USA, Inc., priority 2012, published 2014).

Experiment: Solubility of anhydrous docetaxel in PEG 300 / PEG 400
Type: physicochemical
Conditions: per 1 g PEG 300; ultrasonic dispersion for 5 minutes at 70-80° C.
Procedure: Formulations of anhydrous docetaxel and either PEG 400 or PEG 300 were prepared and mixed using ultrasonic dispersion for 5 minutes at 70-80° C. 1 g of PEG 400 dissolved 25 mg of anhydrous docetaxel. […] 1 g of PEG 300 dissolved 100 mg of anhydrous docetaxel. Accordingly, PEG 300 was able to better solubilize anhydrous docetaxel.

- amount of anhydrous docetaxel dissolved by 1 g of PEG 300: ≥ 100 mg
SMILES: CC(=O)O[C@@]12CO[C@@H]1C[C@H](O)[C@@]1(C)C(=O)[C@H](O)C3=C(C)[C@@H](OC(=O)[C@H](O)[C@@H](NC(=O)OC(C)(C)C)c4ccccc4)C[C@@](O)([C@@H](OC(=O)c4ccccc4)[C@H]21)C3(C)C [anhydrous docetaxel, (2R,3S)—N-carboxy-3-phenylisoserine,Ntert-butyl ester, 13-ester with 5β-20-epoxy-1,2α,4,7β,10β,13α-hexahydroxytax-11-en-9-one 4-acetate 2-benzoate]
